The record followed here is PubChem BioAssay AID2305 (GlaxoSmithKline (GSK), 2010).

By IC50 is commonly meant the concentration that gives 50% inhibition.

This assay deals with P. falciparum 3D7 growth, pLDH absorbance. Nature of the assay: P. falciparum 3D7 growth inhibition, dose response, strain 3D7 (AID 2305).

Molecule `Cc1ccc(C2CC(c3cccs3)=NN2C(=O)c2ccc(Br)o2)cc1` (stereo not drawn) came in with a 50% inhibitory concentration (IC50) of 0.89 µM.
`COc1ccc(CCn2c(=N)c(C(=O)NCc3cccnc3)cc3c(=O)n4cccc(C)c4nc32)cc1` came in with a half-inhibitory concentration (IC50) of 1.4 µM.
In turn, `O=C(/C=C/c1ccc(Cl)c(Cl)c1)NCCCCCN1CCCC(C(=O)Nc2ccc(F)c(Cl)c2)C1` (stereo not drawn) came in with a half-maximal inhibitory concentration (IC50) of 0.9 µM.
As to `O=C(Nc1ccc(OC2CCN(Cc3ccco3)CC2)c(Cl)c1)c1ccc2ncccc2c1`, the half-inhibitory concentration (IC50) came out at 0.95 µM.
`CC(C)OC(=O)c1cccnc1SCC(=O)Nc1ccc(C(F)(F)F)cc1Cl` displayed an IC50 of 0.4 µM.
As for `CC(C)Nc1nc(NCCc2cnc[nH]2)nc(NCc2cccc3ccccc23)n1`, the IC50 stood at 1.01 µM.
As to `CCOc1ccccc1C=CC(=O)Nc1ccc2nc(N3CCN(C)CC3)cc(C)c2c1`, the IC50 amounted to 0.27 µM.
The value for `O=C(O[C@H]1CN[C@H](C#Cc2cc3ncnc(Nc4ccc5c(ccn5S(=O)(=O)c5cccs5)c4)c3s2)C1)N1CCOCC1` was 1.1 µM.
`Cc1cccc(Nc2nccc(NCC(O)c3cccc(C(F)(F)F)c3)n2)c1` (stereo not drawn) came in with an IC50 of 0.51 µM.
Turning to `CN(C)CCCNC(=O)c1ccccc1Sc1ccccc1C#N`, the IC50 was found to be 1.14 µM.
As to `CN(C)CCNC(=O)NC1CN(c2ncnc3cc(-c4ccccc4)sc23)C1`, the 50% inhibitory concentration (IC50) was 0.58 µM.
`Clc1ccc(CNC2CCN(CC3CCCCC3)CC2)cc1` registered a 50% inhibitory concentration (IC50) of 1.11 µM.
The same measure for `CC(C)Cn1cc(C2CCN(CCN3CCC(CNC(=O)c4ccc(NC(=O)c5ccc(Cl)cc5)cc4)CC3)CC2)c2ccccc21`: 0.25 µM; for `CN(C)CCCSc1ccccc1NC(=O)C=Cc1ccccc1`: 0.96 µM.
Turning to `O=C(/C=C/c1ccc(Cl)c(Cl)c1)NC1CCC(CN2CCC(Cc3c[nH]c4ccccc34)CC2)CC1` (stereo not drawn), the IC50 stood at 0.89 µM.
In turn, `COc1cccc(NC(=O)Nc2c(-c3cccc(C(F)(F)F)c3)c(C(F)(F)F)nn2C)c1` returned an IC50 of 0.91 µM.
For `Cc1cccc2[nH]c(-c3ccc(-c4cccc(NC(=O)Nc5ccc6c(c5)OCO6)c4)cc3)nc12`, the half-inhibitory concentration (IC50) amounted to 0.74 µM.
As for `CCCCCc1cc(O)c2c(c1)OC(C)(C)CC2C1=CCN(Cc2cccnc2)CC1` (stereo not drawn), the IC50 was 0.99 µM.
Consider `O=C(NCCC1CCN(CCc2c[nH]c3ccccc23)CC1)Nc1ccc(Cl)c(Cl)c1`, for which the half-inhibitory concentration (IC50) is 0.83 µM.
As to `CN1CCCN(Cc2cccc(-c3ccc(NS(=O)(=O)c4cccc5cccnc45)cc3)c2)CC1`, the IC50 is 0.96 µM.
On to `CC(=O)Nc1ccc(CN(Cc2ccc(C)cc2)Cc2cccc(Oc3ccccc3)c2)cc1`, for which the half-maximal inhibitory concentration (IC50) was 1.05 µM.
Consider `Cc1cc(N[C@@H](Cc2ccccc2)C(=O)NCc2cccc(F)c2)nc(NCCCOC(C)C)n1`, for which the IC50 stood at 0.92 µM.
In turn, `O=C(Nc1ccc(N2CCN(Cc3ccccc3)CC2)cc1)c1cccs1` yielded an IC50 of 0.77 µM.
`COc1ccc(NC(=O)[C@H](Cc2ccccc2)Nc2nc(NCCN3CCCC3)ncc2C)cc1`: the IC50 was determined as 0.99 µM.
`COc1cccc(NC(=O)Nc2ccc(C)c(-c3ccc(C(=O)Nc4ccncc4)cc3)c2)c1` had a half-maximal inhibitory concentration (IC50) of 0.52 µM.
The value for `Cc1ccc(NC(=O)c2ccc3ncccc3c2)cc1OC1CCN(Cc2ccco2)C1` (stereo not drawn) was 1.25 µM.
In turn, `COCCCNC(=O)[C@H]1CNCCN1C(=O)c1ccccc1` displayed a half-inhibitory concentration (IC50) of 0.8 µM.
`COc1ccc2nccc([C@@H](O)CN3CCC(NC(=O)c4cccc(-c5cc(C)no5)c4)CC3)c2c1` came in with an IC50 of 0.34 µM.
The same measure for `O=C(NCC1CCC(C(=O)NCCN2CCCCC2)CC1)c1ccc(O)c(-c2ccc(Cl)c(Cl)c2)c1` (stereo not drawn): 1.17 µM; for `Cc1[nH]c(C)c(-c2ccc(-c3cccc(C(F)(F)F)c3)nc2)c(=O)c1Br`: 0.14 µM; for `COc1cccc(-c2cccc(NC(=O)C3CCN(Cc4ccc(O)cc4)CC3)c2)c1`: 1.03 µM.
The value for `Cc1cc(C2NC(=O)c3ccccc3N2)c(C)n1-c1ccc2c(c1)OCO2` (stereo not drawn) was 0.73 µM; that for `CC(C)Cc1nc(N2CCOCC2)c2nnn(Cc3ccccc3)c2n1` was 0.51 µM.
The value for `Cc1ccccc1C1CCN(C2CCC(NC(=O)c3ccc(-c4cc(C(F)(F)F)nn4C)s3)CC2)CC1` (stereo not drawn) was 0.85 µM; that for `COCCN1CCC(N(Cc2ccc(-c3ccc(C(F)(F)F)cc3)cc2)C(=O)Cn2c(CCc3cccc(F)c3F)cc(=O)c3c2CCC3)CC1` was 1.32 µM; that for `NCc1ccc(CNCc2ccc(-c3ccc(-c4nc5ccc(F)cc5[nH]4)cc3)cc2)cc1` was 0.4 µM.
In turn, `Cc1noc(C)c1-c1cccc(CNCc2ccc(-c3ccc(-c4nc5ccc(F)cc5[nH]4)s3)cc2)c1` showed a half-maximal inhibitory concentration (IC50) of 0.42 µM.
`NC1=NC(c2ccccc2)(c2ccccc2)C(=O)N1Cc1ccccc1Br` displayed an IC50 of 0.86 µM.
In the case of `Nc1cccc(CNCc2cccc(-c3cccc(-c4nc5ccc(F)cc5[nH]4)c3)c2)c1`, the half-inhibitory concentration (IC50) amounted to 0.69 µM.
Turning to `CCc1cn2c3c(cc(C(=O)N[C@@H](Cc4ccccc4)[C@H](O)CNCc4ccccc4)cc13)N(C)S(=O)(=O)CC2`, the IC50 was 0.66 µM.
In turn, `CC(C)NCc1ccc(-c2cccc(NC(=O)c3cccc(C#N)c3)c2)cc1` showed an IC50 of 0.41 µM.
The value for `CCN(CCCN1CCCCC1)c1nccc(Nc2ccc(Cl)cc2)n1` was 1.19 µM; that for `CCNc1cc(C(=O)N[C@@H](Cc2ccccc2)[C@H](O)CNC2(CC)CCCCC2)cc(N2CCCCS2(=O)=O)c1` was 0.27 µM.
